Here are results for twelve molecules from patent US4886822A, “Substituted anilide compounds which are useful in the treatment of arrhythmia” (Kowa Company, Ltd., priority 1987, dated 1989).

Data set [1] relates to Chloroform-Induced Arrhythmia. Briefly: Activity on Chloroform-Induced Arrhythmia (ventricular fibrillation). Format: in vivo, ICR-strain mice. Conditions: Mus musculus, po, 30 mg/kg orally; ICR mice, 10 per group; chloroform vapor; read-out: Percent VF inhibition. On the procedure:
Activity on Chloroform-Induced Arrhythmia: ICR-strain mice having a body weight of 20 to 35 g (10 per group) were used, and the test compound was administered orally in a dose of 30 mg/kg. The mice were put in a 1-liter beaker, and observed for 20 minutes for their symptoms or conditions. Then, they were placed in a vessel saturated with a vapor of chloroform, and the time which elapsed until the animals ceased to breathe was measured. After the stopping of the breathing, the mice were taken out from the vessel and their cardiograms (second induction) were recorded by a memory oscilloscope (VC-10, made by Nippon Kodensha) and a linear corder (WTR331 made by Watanabe Measuring Instrument Co., Ltd.). The occurrence of ventricular fibrillation (VF) was evaluated by the cardiograms. The results are shown in Table 1 by percent VF inhibition.

Data set [2] concerns Ouabain-Induced Arrhythmia. In words: Activity on Ouabain-Induced Arrhythmia. Conditions: Canis lupus familiaris, iv; continuous injection into femoral vein 0.5 mg/kg/min; anaesthetized dogs; n=3 (range); read-out: Dose required complete inhibition. In kind it is in vivo, Male hybrid adult dogs. On the procedure:
Activity on Ouabain-Induced Arrhythmia: Male hybrid adult dogs weighing 9 to 17 kg were anaesthetized, and fixed in the supine position under artificial respiration. The blood pressures, heart rates and second induced cardiograms (using RA-101 made by San-ei Measuring Instrument Co., Ltd.) of the animals were measured. Ouabain was first intravenously administered in a dose of 40 μg/kg, and 30 minutes later in a dose of 20 μg/kg. Furthermore, until continuous ventricular arrhythmia was obtained, 10 μg/kg of ouabain was cumulatively administered at intervals of 15 minutes. The ventricular automaticity was examined substantially in accordance with the method of Roberts et al. (J. Pharmacol. Exp. Ther. 117, 374-384, 1956). The peripheral end of the right cervical vagus nerve was stimulated with short waves (0.4-1.9 V, 1 millisecond, 20 Hz) using an electrical stimulating device (MSE-3R made by Nippon Kodensha) for 10 seconds. […] After the administration, the vagus nerve was stimulated every minute, and the inhibition of extrasystole was observed. At the same time, the presence or absence of restoration of the cardiogram to a normal rhythm was observed using the inversion of R waves as an index in ventricular arrhythmia. The anti-arrhythmic action was evaluated such that when the normal sinus rhythm was restored and extrasystole was not induced by stimulation of the vagus nerve, the result was rated as complete inhibition.

For data set [3] the following is noted: cited from earlier work; for side effects: known/reported side effects (background).

Counter-ions that a name gives are not always drawn.

Take `C=CCOc1ccc(-c2cccnc2)c(NC(=O)CC(C)N)c1` (stereo not drawn) [Example 28, 5'-Allyloxy-3-amino-2'-(3-pyridyl)butyranilide]: in data set [1], the inhibition in vivo at 30 mg/kg is 70%. In addition, the ED100 in data set [2] was 1.5 to 2.8 mg/kg.

In the case of `CC(N)CC(=O)Nc1cc(OCC(F)(F)F)ccc1-c1cccnc1` (stereo not drawn) [Example 20, 3-Amino-2'-(3-pyridyl)-5'-(2,2,2-trifluoroethoxy)butyranilide monohydrochloride], in data set [1], the inhibition in vivo at 30 mg/kg was 100%.

`CCOc1ccc(-c2cccnc2)c(NC(=O)CC(C)N)c1.Cl.Cl` (stereo not drawn) [Example 33, 3-Amino-5'-ethoxy-2'-(3-pyridyl)butyranilide dihydrochloride]: the inhibition in vivo at 30 mg/kg in data set [1] is 80%. The ED100 in data set [2] lay within 2 to 3 mg/kg.

Take `CC(N)CC(=O)Nc1c(OCC(F)(F)F)cccc1-c1cccnc1` (stereo not drawn) [Example 23, 3-Amino-2'-(3-pyridyl)-6'-(2,2,2-trifluoroethoxy)butyranilide]: in data set [1], the inhibition in vivo at 30 mg/kg is 70%.

For the molecule `COc1ccc(C(O)c2cccnc2)cc1NC(=O)CC(C)N` (stereo not drawn) [Example 56, 3-Amino-5'-[hydroxy-(3-pyridyl)methyl]-2'-methoxybutyranilide hydrochloride], the inhibition in vivo at 30 mg/kg in data set [1] was found to be 70%.

As for `Cc1cccc(C)c1OCC(C)N` (stereo not drawn) [mexiletine, reference compound], in data set [1], the inhibition in vivo at 30 mg/kg came to 50%. Also, the ED100 in data set [2] is 2 to 4.5 mg/kg. Moreover, the side effects result in data set [3] was “side effects on the digestive system and the meuropsychotic system with a high frequency”. For the same molecule, the “activity on the central nervous system” value in data set [3] (reported (background)) is “has activity on the central nervous system”.

For the molecule `COc1ccc(-c2ccccn2)c(NC(=O)CC(C)N)c1` (stereo not drawn) [Example 1, 3-Amino-5'-methoxy-2'-(2-pyridyl)butynanilide], the inhibition in vivo at 30 mg/kg in data set [1] was 80%.

As to `COc1ccc(-c2nc3cccnc3[nH]2)c(NC(=O)CC(C)N)c1` (stereo not drawn) [Example 46], the inhibition in vivo at 30 mg/kg in data set [1] is 80%.

Take `COc1ccc(-c2ncc[nH]2)c(NC(=O)CC(C)N)c1` (stereo not drawn) [Example 45, 3-Amino-2'-(2-imidazolyl)-5'-methoxybutyranilide]: the inhibition in vivo at 30 mg/kg in data set [1] was determined as 80%.

Take `Cc1ccc(-c2ccccn2)c(NC(=O)CC(C)N)c1` (stereo not drawn) [Example 8, 3-Amino-5'-methyl-2'-(2-pyridyl)butyranilide]: the inhibition in vivo at 30 mg/kg in data set [1] was 90%.

For `C=CCOc1ccc(-c2ccccn2)cc1NC(=O)CC(C)N` (stereo not drawn) [Example 30, 2'-Allyloxy-3-amino-5'-(2-pyridyl)butyranilide dihydrochloride], the inhibition in vivo at 30 mg/kg in data set [1] came out at 70%.

`CC(C)N(CCC(C(N)=O)(c1ccccc1)c1ccccn1)C(C)C` (stereo not drawn) [disopyramide]: the “action on the myocardium” value in data set [3] (background) is “inhibiting action on the myocardium”. Moreover, in data set [3], the side effects result is “thirst, ischurin, constipation, dizziness and vomiting”.
